Results taken from PMC2603313, “Direct Inhibition of GSK3β by the Phosphorylated Cytoplasmic Domain of LRP6 in Wnt/β-Catenin Signaling” (PLoS ONE, 2008).
Entries after “also recorded” stand apart in the source; their conditions may differ. Ends that are not written are not given here.

Assays:
[1] = test system: A549 cells; assay: β-Catenin immunofluorescence in transfected A549 cells; type: cell-based; conditions: GFP fusion
Text: (§1) Figure 1 LRP6 constructs and their cytoplasmic overexpression in cell. (A) Schematic representation of the full-length LRP6 and amino acid sequences of LRP6 intracellular fragments used in this study. The Ser/Thr rich cluster and PPPSPxS motif are underlined in each sequence. Phosphorylated residues are highlighted. (B) Cytosolic overexpression of the LRP6 constructs. A549 cells in which control (empty vector, EV, encoding only GFP), miniCL and miniCLMT were transfected as GFP fusion proteins. Control, miniCL and miniCLMT were detected through the green fluorescence from GFP. β-Catenin was detected using an anti-β-catenin antibody, and the nuclei were detected by DAPI staining. […] Endogenous β-catenin was detected by an anti-β-catenin antibody. p-GS indicates the level of the phosphorylated GS by GSK3β, detected by anti-glycogen synthase (Ser641) antibody. p-S9-GSK3β indicates the phosphorylated Ser9 of GSK3β, and was detected by anti-phospho GSK3β (Ser9) antibody. Levels of transfected proteins were detected using monoclonal GFP antibody, indicated by GFP. Total cellular levels of GS and GSK3β were measured by anti-GS antibody and anti-GSK3β antibody, which are indicated by t-GS and t-GSK3β, respectively. […] (D) Activation of Wnt/β-catenin signaling, which was measured by the Top-flash luciferase activity. […] The luciferase activities were measured after 24 h of the transfection. […]

[2] = test system: HepG2 cells; assay: β-Catenin immunofluorescence in transfected HepG2 cells; type: cell-based; conditions: GFP fusion
Experimental: (§2) pEGFP-miniCL and pEGFP-miniCLMT vectors were transfected into A549 cells and HepG2 cells using jetpei according to the manufacturer's protocol (Polyplus transfection). In brief, 2 µg of DNA and jetpei mixtures were added to A549 cells and HepG2 cell and incubated for 3 h under serum-free conditions, and then equal volumes of DMEM containing 20% serum were added. After 24 h incubation, cells were harvested using RIPA (containing protease cocktail). Subsequently, 20 µg of protein lysates were applied to SDS-PAGE. After transferring the proteins to a PVDF membrane, samples were incubated with the appropriate antibodies, according to standard western blot protocol.
Transfected cells were fixed with 100% methanol for 20 min at −20°C. After washing with PBS and subsequent blocking with blocking buffer (PBS+0.05% BSA), fixed cells were incubated with anti-β-catenin antibody for 2 h at room temperature. […] After washing with PBS, expression of β-catenin, GFP, and DAPI were analyzed using fluorescence microscopy.
Supplementary file pone.0004046.s001.tif: Figure S1 Cytosolic overexpression of the LRP6 constructs in HepG2 cells. […] Control, miniCL and miniCLMT were detected through the green fluorescence from GFP. β-Catenin was detected using an anti-β-catenin antibody, and the nuclei were detected by DAPI staining. […]

[3] = test system: Wnt/β-catenin signaling; assay: TOP-flash luciferase assay in 293 cells; type: cell-based; conditions: 24 h after transfection, 4 independent experiments, p<0.01 vs empty vector and vs miniCLMT
Text: as §1

[4] = test system: GSK3β; assay: Western blot of GSK3β phosphorylated at Ser9 in transfected A549 cells; type: cell-based; conditions: GFP fusion
Text: as §1

[5] = test system: glycogen synthase; assay: Western blot of phosphorylated glycogen synthase (Ser641) in transfected A549 cells; type: cell-based; conditions: GFP fusion, anti-glycogen synthase (Ser641)
Text: as §1

[6] = biological target: T1, GSK3β (Mus musculus, UniProt Q9WV60); assay: Far western binding of GSK3β to miniCL in presence of Axin GBD; conditions: phosphorylated GST-miniCL; GSK3β 0.1 µg/ml; GST-Axin GBD 0, 10 µM; three independent experiments
T1 construct: The catalytic domains of mouse GSK3β (residues 27–393) and CK1ε (residues 1–319) were expressed and purified; made in house
Experimental: Figure 4 Phosphorylation-dependent binding of the LRP6 intracellular region to GSK3β in the absence and presence of Axin. (A) GST (Lane 1), GST-fused miniCL (Lane 3; GST-miniCL), GST-fused miniCLMT (Lane 5; GST-miniCLMT), and their phosphorylated forms (Lanes 2, 4, 6; indicated by “phos”) were loaded onto an SDS-polyacrylamide gel, and then transferred to PVDF membrane (Left top). […] The phosphorylated protein bands show an upshifted mobility on the gel. The PVDF membrane was incubated with 1 µg/ml of GSK3β to allow GSK3β to bind to the proteins in the membrane. The bound GSK3β was visualized on the transferred proteins by western blotting using an anti-GSK3β antibody (Left bottom), and the GSK3β protein used to obtain the phosphorylated forms of each protein is indicated by GSK3β*. The band intensities of bound GSK3β were measured from the three independent experiments (Right). […] The phosphorylated GST-fused miniCL was transferred to PVDF membrane, and the membrane was incubated with GSK3β (0.1 µg/ml) and GST-fused Axin GBD domain protein (0, 10 µM). Error bars indicate the standard deviation from three independent experiments. […]
GST-fusion proteins (GST-miniCL, GST-miniCLMT, GST-PPPSPxS, GST-PPPAPxS) were subjected to SDS-PAGE and transferred to a PVDF membrane. […] The binding of GSK3β was detected with rabbit anti-GSK3β antibody and secondary HRP-conjugated goat anti-rabbit IgG (Pierce).

[7] = test system: HepG2 cells; assay: Western blot of β-catenin in transfected HepG2 cells; type: cell-based; conditions: GFP fusion, 24 h
Experimental: as §2
Supplementary file pone.0004046.s002.tif: Figure S2 Western blotting analysis from the transfected HepG2 cells. Labels at the left side of blots indicate the antibody used for detection of the corresponding protein. The endogenous β-catenin level was detected by an anti-β-catenin antibody. p-GS indicates the level of the phosphorylated GS by GSK3β, detected by anti-glycogen synthase (Ser641) antibody. p-S9-GSK3β indicates the phosphorylated Ser9 of GSK3β, and was detected by anti-phospho GSK3β (Ser9) antibody. Levels of transfected proteins were detected using monoclonal GFP antibody, indicated by GFP. Pan-Ras is shown as a loading control. (0.05 MB TIF) Click here for additional data file.

[8] = test system: A549 cells; assay: Western blot of β-catenin in transfected A549 cells; type: cell-based; conditions: GFP fusion, 24 h
Text: as §1

[9] = test system: LRP6 miniCL; assay: Far western binding of Axin fragment to LRP6 miniCL with GSK3β; parameters: species or system human; conditions: GST-miniCL 15 µg on PVDF; GSK3β 2 µg/ml and/or His-Axin 12 µg/ml
Experimental: Figure 4 Phosphorylation-dependent binding of the LRP6 intracellular region to GSK3β in the absence and presence of Axin. (A) GST (Lane 1), GST-fused miniCL (Lane 3; GST-miniCL), GST-fused miniCLMT (Lane 5; GST-miniCLMT), and their phosphorylated forms (Lanes 2, 4, 6; indicated by “phos”) were loaded onto an SDS-polyacrylamide gel, and then transferred to PVDF membrane (Left top). […] The phosphorylated protein bands show an upshifted mobility on the gel. The PVDF membrane was incubated with 1 µg/ml of GSK3β to allow GSK3β to bind to the proteins in the membrane. The bound GSK3β was visualized on the transferred proteins by western blotting using an anti-GSK3β antibody (Left bottom), and the GSK3β protein used to obtain the phosphorylated forms of each protein is indicated by GSK3β*. The band intensities of bound GSK3β were measured from the three independent experiments (Right). […] The phosphorylated GST-fused miniCL was transferred to PVDF membrane, and the membrane was incubated with GSK3β (0.1 µg/ml) and GST-fused Axin GBD domain protein (0, 10 µM). Error bars indicate the standard deviation from three independent experiments. (C) GSK3β mediates the binding of an Axin fragment to LRP6 miniCL region. […]

T1 sequence (Q9WV60 27-393): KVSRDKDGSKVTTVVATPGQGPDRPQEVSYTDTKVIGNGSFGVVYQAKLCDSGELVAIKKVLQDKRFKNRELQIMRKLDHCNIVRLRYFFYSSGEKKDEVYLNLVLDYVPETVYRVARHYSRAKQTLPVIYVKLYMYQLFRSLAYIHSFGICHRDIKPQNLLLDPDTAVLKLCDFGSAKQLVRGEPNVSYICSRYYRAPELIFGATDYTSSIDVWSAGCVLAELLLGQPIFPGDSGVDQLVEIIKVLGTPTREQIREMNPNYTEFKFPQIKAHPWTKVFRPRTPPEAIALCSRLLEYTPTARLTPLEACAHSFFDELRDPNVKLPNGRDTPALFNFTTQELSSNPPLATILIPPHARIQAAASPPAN

miniCL: LRP6 miniCL (residues 1470–1510 of human LRP6), GFP fusion in cells (SSSSSSTKGTYFPAILNPPPSPATERSHYTMEFGYSSNSPS; not fully specified; also: GFP fusion in cells (GFP left off))
Total cellular β-catenin and nuclear translocation [1]: dramatically increased the total amount of cellular β-catenin and promoted the translocation of β-catenin into the nucleus
Total cellular β-catenin and nuclear translocation [2]: dramatically increased the total amount of cellular β-catenin and promoted the translocation of β-catenin into the nucleus
TOP-flash luciferase activity [3]: significantly induced TOP-flash activity; also recorded: significantly activated Wnt/β-catenin signaling
Phosphorylation of Ser9 in GSK3β [4]: without the induction of phosphorylation of Ser9 in GSK3β
Phosphorylation of glycogen synthase (p-GS) [5]: suppressed phosphorylation of glycogen synthase
Effect of Axin GBD on GSK3β binding to miniCL [6]: does not affect the binding of GSK3β; also recorded: not affected by the presence of Axin
β-catenin level (western blot) [7]: increased level of β-catenin
β-catenin level (western blot) [8]: increased level of β-catenin

B1: Axin fragment: His-tagged Axin fragment (residues 512–650) including the GBD and the β-catenin binding domain (protein, UniProt O35625 512-650, looked up, fragment)
chain: GKHVPKLGLKLDTAGLHHHRHVHHHVHHNSARPKEQMEAEVARRVQSSFSWGPETHGHAKPRSYSENAGTTLSAGDLAFGGKTSAPSKRNTKKAESGKNANAEVPSTTEDAEKNQKIMQWIIEGEKEISRHRKAGHGSS
modifications: His tag
Binding to LRP6 miniCL [9]: bound to LRP6 miniCL only in the presence of GSK3β; also recorded: bound to the LRP6 miniCL fragment only when GSK3β was co-incubated
